Measurements published in PubChem BioAssay (NCI).
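Assay format: 96-well plates, 48-hour exposure. GI50: concentration for 50% inhibition of growth. TGI is the concentration that stops growth completely.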

Key:
Experiment in all cases: NCI tumour cell line growth inhibition, 48 h
K-562 leukemia = test system: K-562 leukemia
HCT-15 colon = test system: HCT-15 colon
NCI-H460 lung = test system: NCI-H460 lung
OVCAR-3 ovarian = test system: OVCAR-3 ovarian
HOP-62 NSCLC = test system: HOP-62 NSCLC
SW-620 colon = test system: SW-620 colon
SN12C renal = test system: SN12C renal
SK-MEL-2 melanoma = test system: SK-MEL-2 melanoma
NCI-H522 lung = test system: NCI-H522 lung
BT-549 breast = test system: BT-549 breast

| SMILES | GI50 (K-562 leukemia) [µM] | TGI (K-562 leukemia) [µM] | GI50 (HCT-15 colon) [µM] | TGI (HCT-15 colon) [µM] | GI50 (NCI-H460 lung) [µM] | TGI (NCI-H460 lung) [µM] | GI50 (OVCAR-3 ovarian) [µM] | TGI (OVCAR-3 ovarian) [µM] | GI50 (HOP-62 NSCLC) [µM] | TGI (HOP-62 NSCLC) [µM] | GI50 (SW-620 colon) [µM] | TGI (SW-620 colon) [µM] | GI50 (SN12C renal) [µM] | TGI (SN12C renal) [µM] | GI50 (SK-MEL-2 melanoma) [µM] | TGI (SK-MEL-2 melanoma) [µM] | GI50 (NCI-H522 lung) [µM] | TGI (NCI-H522 lung) [µM] | GI50 (BT-549 breast) [µM] | TGI (BT-549 breast) [µM] |
| --- | --- | --- | --- | --- | --- | --- | --- | --- | --- | --- | --- | --- | --- | --- | --- | --- | --- | --- | --- | --- |
| CC(C)C[C@@H](N)[C@@H](O)C(=O)N[C@H](C(=O)N[C@H](C(=O)N[C@@H](CC(=O)O)C(=O)O)C(C)C)C(C)C | > 20 | > 20 | > 20 | > 20 | > 20 | > 20 | > 20 | > 20 | > 20 | > 20 | > 20 | > 20 | > 20 | > 20 | > 20 | > 20 | > 20 | > 20 | > 20 | > 20 |
| COc1cc2c(cc1C)NC(=O)/C2=C/c1ccnc2ccccc12 | 6.34 | 33.6 | 20.5 | > 50 | 15.3 | > 50 | 18.4 | > 50 | > 50 | > 50 | > 50 | > 50 | 12.6 | > 50 | 26.3 | > 50 | 8.35 | 41.7 | 29.1 | > 50 |
| O=S(=O)(NC1=NCCN1C(=S)SN1CCn2c1nsc2=S)c1ccc(Cl)cc1 | 5.21 | > 100 | 11.9 | 28.2 | 10.2 | 38.6 | 2.54 | 12.2 | 19.5 | 41 | 4.42 | 17.9 | 8.56 | 22.5 | 5.93 | 22.7 | 4.74 | 18.4 | 2.28 | 6.48 |
| Nc1cc2c3c(cccc3c1)C(=O)N(CCN1CCCC1)C2=O | 3.75 | > 37.6 | 2.02 | > 100 | 0.666 | > 24.5 | 5.26 | 29.3 | 2.58 | 25.5 | 2.39 | > 53.8 | 2.73 | > 84.8 | 4.96 | 19.2 | 3.46 | 19.4 | 6.49 | 29.8 |
| COc1ccc2[nH]c(C(=O)N3CCN(C(=O)OCc4ccc5c(Cl)cc(Cl)c(O)c5n4)CC3)cc2c1 | 0.543 | 4.41 | 0.368 | 1.59 | 1.18 | 2.76 | 0.504 | 1.83 | 1.56 | 3.36 | 0.401 | 1.61 | 1.27 | 2.56 | 1.61 | 3.06 | 0.828 | 2.35 | 1.04 | 2.34 |
| Cn1c(COC(=O)NCCn2ccnc2)nc2c(N3CCOCC3)nc(-c3ccccc3)nc21 | 0.347 | 2 | 0.193 | 0.484 | 1.42 | 2.91 | 0.174 | 0.367 | 1.54 | 3.9 | 0.226 | 0.58 | 0.727 | 2.06 | 1.68 | 3.3 | 0.352 | 1.56 | 0.737 | 2.04 |
| CSc1nc(Nc2cccc(NC(=O)CCl)c2)c(C#N)c(-c2cccc([N+](=O)[O-])c2)n1 | 2.28 | > 100 | 1.66 | 4.1 | 4.12 | 23.2 | 1.77 | 3.24 | 2.55 | 11.4 | 1.93 | 5.11 | 2.78 | 10.3 | 2.05 | 5.22 | 1.68 | 5.36 | 1.79 | 5.68 |
| CC1=NN(c2cccc(Cl)c2)C(=O)/C1=C\c1cn(CC(O)CN2CCCCC2)c2ccccc12 (stereo not given) | 3.29 | 39.4 | 2.42 | 6.7 | 2.44 | 6.4 | 7.98 | 20.9 | 12.4 | 26.5 | 1.73 | 3.53 | 12.3 | 35.3 | 10.3 | 24.7 | 10.9 | 26.5 | 15 | 29.5 |
| Oc1ccc(Cl)cc1C=Nc1cnc2ccccc2c1 | – | > 100 | – | > 100 | – | > 100 | – | > 59.8 | – | > 100 | – | > 100 | – | > 100 | – | > 80.6 | – | > 100 | – | > 100 |
